Data: ChEMBL document CHEMBL1144268, “Unified Markov thermodynamics based on stochastic forms to classify drugs considering molecular structure, partition system, and biological species: distribution of the antimicrobial G1 on rat tissues” (2005)

Experiments:
Format in all cases: functional
Rattus norvegicus [1] = species on record: Rattus norvegicus; experiment: Partition coefficient in rat lung
Rattus norvegicus [2] = species on record: Rattus norvegicus; experiment: Partition coefficient in rat liver
Rattus norvegicus [3] = species on record: Rattus norvegicus; experiment: Partition coefficient in rat spleen
Rattus norvegicus [4] = species on record: Rattus norvegicus; experiment: Partition coefficient in rat adipose tissue
Rattus norvegicus [5] = species on record: Rattus norvegicus; experiment: Plasma concentration measured in rat lung after treatment with the compound
Rattus norvegicus [6] = species on record: Rattus norvegicus; experiment: Plasma concentration measured in rat liver after treatment with the compound
Rattus norvegicus [7] = species on record: Rattus norvegicus; experiment: Plasma concentration measured in rat spleen after treatment with the compound
Rattus norvegicus [8] = species on record: Rattus norvegicus; experiment: Plasma concentration measured in rat adipose tissue after treatment with the compound
Rattus norvegicus [9] = species on record: Rattus norvegicus; experiment: Plasma concentration measured in rat plasma after treatment with the compound

Question: For `O=[N+]([O-])/C(Br)=C/C1CCC(Br)O1` (centres undefined), which PC (Rattus norvegicus [1]) is on record?
Answer: 1.91

Question: What about the PC (Rattus norvegicus [2]) of the same molecule?
Answer: 4.75

Question: And the PC (Rattus norvegicus [3])?
Answer: 1.29

Question: And the PC (Rattus norvegicus [4])?
Answer: 3.17

Question: And the C (Rattus norvegicus [5])?
Answer: 17.04 mg/mL

Question: And the C (Rattus norvegicus [6])?
Answer: 42.25 mg/mL

Question: And the C (Rattus norvegicus [7])?
Answer: 11.47 mg/mL

Question: And the C (Rattus norvegicus [8])?
Answer: 28.19 mg/mL

Question: What about the C (Rattus norvegicus [9]) of the same molecule?
Answer: 8.9 mg/mL
